ChEMBL document CHEMBL1201862, “PubChem BioAssay data set” (2004)
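Values below derive from 48-hour exposures of cells grown in 96-well plates, with endpoints linearly interpolated between the two concentrations bracketing the appropriate inhibition level. GI50 is the concentration that inhibits growth by half.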 Active and inactive are the calls of the source. No stated cut-off is given here; in the data, active = GI50 up to about 1.1 µM and inactive = higher.

Legend:
Assay in all cases: NCI-60 cell line screen, 48 h
ACHN = system: ACHN
SW-620 = system: SW-620
NCI-H23 = system: NCI-H23
U-251 = system: U-251
TK-10 = system: TK-10
HOP-62 = system: HOP-62
XF498 = system: XF498
K562 = system: K562
DMS-114 = system: DMS-114
UACC-62 = system: UACC-62
786-0 = system: 786-0
SK-OV-3 = system: SK-OV-3
DMS-273 = system: DMS-273
OVCAR-4 = system: OVCAR-4
SNB-19 = system: SNB-19
EKVX = system: EKVX
SK-MEL-2 = system: SK-MEL-2
KM-20L2 = system: KM-20L2
COLO 205 = system: COLO 205
SK-MEL-5 = system: SK-MEL-5
HT-29 = system: HT-29
A549 = system: A549
KM12 = system: KM12
NCI-H522 = system: NCI-H522
UO-31 = system: UO-31
UACC-257 = system: UACC-257
LXFL 529 = system: LXFL 529
SN12C = system: SN12C
DLD-1 = system: DLD-1
SNB-78 = system: SNB-78
LOX IMVI = system: LOX IMVI
RXF 631 = system: RXF 631
SK-MEL-28 = system: SK-MEL-28
SF-295 = system: SF-295
SNB-75 = system: SNB-75
M19-MEL = system: M19-MEL
NCI-H226 = system: NCI-H226
A498 = system: A498
RPMI-8226 = system: RPMI-8226
NCI-H460 = system: NCI-H460
Malme-3M = system: Malme-3M
OVCAR-8 = system: OVCAR-8
IGROV-1 = system: IGROV-1
HCT-116 = system: HCT-116
RXF 393 = system: RXF 393
M14 = system: M14
SF-539 = system: SF-539
CAKI-1 = system: CAKI-1
MOLT-4 = system: MOLT-4
CCRF-CEM = system: CCRF-CEM
SF-268 = system: SF-268
OVCAR-3 = system: OVCAR-3
HCT-15 = system: HCT-15
OVCAR-5 = system: OVCAR-5

Cc1cc(NS(=O)(=O)c2ccc(NC(=O)c3cccc4cc5ccccc5nc34)cc2)no1
GI50 (ACHN): 11.1 µM (inactive) | GI50 (SW-620): 25.3 µM (inactive) | GI50 (NCI-H23): 17.2 µM (inactive) | GI50 (U-251): 12.5 µM (inactive) | GI50 (TK-10): 35.9 µM (inactive) | GI50 (HOP-62): 27.6 µM (inactive) | GI50 (XF498): 17 µM (inactive) | GI50 (K562): 18.1 µM (inactive) | GI50 (DMS-114): 18.3 µM (inactive) | GI50 (UACC-62): 13.8 µM (inactive) | GI50 (786-0): 16.7 µM (inactive) | GI50 (SK-OV-3): 39.6 µM (inactive) | GI50 (DMS-273): 13.8 µM (inactive) | GI50 (OVCAR-4): 18.3 µM (inactive) | GI50 (SNB-19): 6.46 µM (inactive) | GI50 (EKVX): 29.6 µM (inactive) | GI50 (SK-MEL-2): 18.7 µM (inactive) | GI50 (KM-20L2): 27.7 µM (inactive) | GI50 (COLO 205): 23.3 µM (inactive) | GI50 (SK-MEL-5): 15.6 µM (inactive) | GI50 (HT-29): 30 µM (inactive) | GI50 (A549): 22 µM (inactive) | GI50 (KM12): 16.4 µM (inactive) | GI50 (NCI-H522): 15.5 µM (inactive) | GI50 (UO-31): 6.87 µM (inactive) | GI50 (UACC-257): 27.4 µM (inactive) | GI50 (LXFL 529): 15.8 µM (inactive) | GI50 (SN12C): 18 µM (inactive) | GI50 (DLD-1): 19.9 µM (inactive) | GI50 (SNB-78): 29.9 µM (inactive) | GI50 (LOX IMVI): > 10 µM (inactive) | GI50 (RXF 631): 17.7 µM (inactive) | GI50 (SK-MEL-28): 8.36 µM (inactive) | GI50 (SF-295): 19.9 µM (inactive) | GI50 (SNB-75): 17.6 µM (inactive) | GI50 (M19-MEL): 16.6 µM (inactive) | GI50 (NCI-H226): 0.191 µM (active) | GI50 (A498): 16.7 µM (inactive) | GI50 (RPMI-8226): 16.1 µM (inactive) | GI50 (NCI-H460): 18.3 µM (inactive) | GI50 (Malme-3M): 14.8 µM (inactive) | GI50 (OVCAR-8): 16.6 µM (inactive) | GI50 (IGROV-1): 15.8 µM (inactive) | GI50 (HCT-116): 6.7 µM (inactive) | GI50 (RXF 393): 14.8 µM (inactive) | GI50 (M14): 23.5 µM (inactive) | GI50 (SF-539): 11.6 µM (inactive) | GI50 (CAKI-1): 21.9 µM (inactive) | GI50 (MOLT-4): 17.1 µM (inactive) | GI50 (CCRF-CEM): 16 µM (inactive) | GI50 (SF-268): 12.9 µM (inactive) | GI50 (OVCAR-3): 22.3 µM (inactive) | GI50 (HCT-15): 14.7 µM | GI50 (OVCAR-5): 23.2 µM (inactive)
